# Test results reported in patent US20230117034A1, “PYRAZOLOTRIAZINES” (Bayer Aktiengesellschaft, priority 2019, published 2023).
# Experiments:
# [1] = test system: BRCA1 mRNA expression in MDA-MB-231 cells; assay: qRT-PCR assay: BRCA1 mRNA expression in MDA-MB-231; format: cell-based, human; conditions: Homo sapiens, MDA-MB-231, Inhibition of BRCA1 mRNA expression in MDA-MB-231 cells; median; read-out: RTqPCR-MDA-MB-231, IC50, BRCA1 (median)
# In short: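 GAPDH-normalised RT-qPCR measures the transcript after 24 h continuous compound treatment of cells seeded at 200,000/well one day earlier.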
# [2] = test system: MDA-MB-231, human breast cancer cells; assay: Proliferation assay MDA-MB-231 (crystal violet, 4 days); format: cell-based; conditions: Homo sapiens, MDA-MB-231, 96 h, MDA-MB-231 cells, median, read-out: Prolif-MDA MB-231, IC50-[mol/l] (median)
# In short: (§1)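 Following a 24 h attachment in 10% fetal calf serum medium, cells receive test substance over 0.01-10 µmol/L for 4 days. Dye retained by fixed cells is eluted and read at 595 nm; cell number change is referenced to day-0 and untreated wells.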
# [3] = test system: CAL-120, human breast adenocarcinoma cells; assay: Proliferation assay CAL-120 (crystal violet, 4 days); format: cell-based; conditions: Homo sapiens, CAL-120, 96 h, CAL-120 cells, median, read-out: Prolif-CAL-120, IC50-[mol/l] (median)
# In short: as §1
# [4] = molecular target: T1, CYCLIN K (nuclear staining in CAL-120 cells) (Homo sapiens, UniProt O75909); assay: CYCLIN K nuclear protein level: immunofluorescence high content analysis (CAL-120); format: cell-based; conditions: 24 h, 50% reduction of nuclear CCNK staining intensity, median, read-out: CYCLIN K degradation IF, DC50-[mol/l] (median)
# T1 construct: endogenous in cells; host or cells: CAL-120 human breast cancer cells (DSMZ ACC 459)
# In short: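 CAL-120 breast cancer cells treated in dose-response for 24 h at 37 °C, PFA-fixed and immunostained for cyclin K with Hoechst counterstain. Confocal imaging quantified nuclear intensity; DC50 is the concentration giving 50% reduction of nuclear CCNK staining, normalized to DMSO and control.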
# T1 sequence (O75909 whole entry): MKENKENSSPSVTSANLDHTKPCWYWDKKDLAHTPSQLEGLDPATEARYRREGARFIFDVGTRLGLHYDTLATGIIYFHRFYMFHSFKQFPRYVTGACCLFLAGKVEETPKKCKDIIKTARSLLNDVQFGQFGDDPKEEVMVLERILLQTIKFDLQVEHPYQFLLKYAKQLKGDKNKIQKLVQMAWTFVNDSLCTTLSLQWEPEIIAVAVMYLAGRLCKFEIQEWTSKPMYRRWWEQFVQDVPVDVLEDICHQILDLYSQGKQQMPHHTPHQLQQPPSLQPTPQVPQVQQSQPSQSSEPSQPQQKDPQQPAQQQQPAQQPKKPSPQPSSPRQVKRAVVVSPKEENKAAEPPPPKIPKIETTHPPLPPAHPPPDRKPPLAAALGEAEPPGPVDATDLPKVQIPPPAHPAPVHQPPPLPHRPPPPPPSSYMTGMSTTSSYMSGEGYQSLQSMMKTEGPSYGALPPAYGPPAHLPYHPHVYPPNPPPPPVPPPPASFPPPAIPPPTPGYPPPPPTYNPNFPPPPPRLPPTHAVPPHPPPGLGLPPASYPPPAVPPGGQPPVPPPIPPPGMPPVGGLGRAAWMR
# T1 sequence (Q9NYV4 whole entry partner): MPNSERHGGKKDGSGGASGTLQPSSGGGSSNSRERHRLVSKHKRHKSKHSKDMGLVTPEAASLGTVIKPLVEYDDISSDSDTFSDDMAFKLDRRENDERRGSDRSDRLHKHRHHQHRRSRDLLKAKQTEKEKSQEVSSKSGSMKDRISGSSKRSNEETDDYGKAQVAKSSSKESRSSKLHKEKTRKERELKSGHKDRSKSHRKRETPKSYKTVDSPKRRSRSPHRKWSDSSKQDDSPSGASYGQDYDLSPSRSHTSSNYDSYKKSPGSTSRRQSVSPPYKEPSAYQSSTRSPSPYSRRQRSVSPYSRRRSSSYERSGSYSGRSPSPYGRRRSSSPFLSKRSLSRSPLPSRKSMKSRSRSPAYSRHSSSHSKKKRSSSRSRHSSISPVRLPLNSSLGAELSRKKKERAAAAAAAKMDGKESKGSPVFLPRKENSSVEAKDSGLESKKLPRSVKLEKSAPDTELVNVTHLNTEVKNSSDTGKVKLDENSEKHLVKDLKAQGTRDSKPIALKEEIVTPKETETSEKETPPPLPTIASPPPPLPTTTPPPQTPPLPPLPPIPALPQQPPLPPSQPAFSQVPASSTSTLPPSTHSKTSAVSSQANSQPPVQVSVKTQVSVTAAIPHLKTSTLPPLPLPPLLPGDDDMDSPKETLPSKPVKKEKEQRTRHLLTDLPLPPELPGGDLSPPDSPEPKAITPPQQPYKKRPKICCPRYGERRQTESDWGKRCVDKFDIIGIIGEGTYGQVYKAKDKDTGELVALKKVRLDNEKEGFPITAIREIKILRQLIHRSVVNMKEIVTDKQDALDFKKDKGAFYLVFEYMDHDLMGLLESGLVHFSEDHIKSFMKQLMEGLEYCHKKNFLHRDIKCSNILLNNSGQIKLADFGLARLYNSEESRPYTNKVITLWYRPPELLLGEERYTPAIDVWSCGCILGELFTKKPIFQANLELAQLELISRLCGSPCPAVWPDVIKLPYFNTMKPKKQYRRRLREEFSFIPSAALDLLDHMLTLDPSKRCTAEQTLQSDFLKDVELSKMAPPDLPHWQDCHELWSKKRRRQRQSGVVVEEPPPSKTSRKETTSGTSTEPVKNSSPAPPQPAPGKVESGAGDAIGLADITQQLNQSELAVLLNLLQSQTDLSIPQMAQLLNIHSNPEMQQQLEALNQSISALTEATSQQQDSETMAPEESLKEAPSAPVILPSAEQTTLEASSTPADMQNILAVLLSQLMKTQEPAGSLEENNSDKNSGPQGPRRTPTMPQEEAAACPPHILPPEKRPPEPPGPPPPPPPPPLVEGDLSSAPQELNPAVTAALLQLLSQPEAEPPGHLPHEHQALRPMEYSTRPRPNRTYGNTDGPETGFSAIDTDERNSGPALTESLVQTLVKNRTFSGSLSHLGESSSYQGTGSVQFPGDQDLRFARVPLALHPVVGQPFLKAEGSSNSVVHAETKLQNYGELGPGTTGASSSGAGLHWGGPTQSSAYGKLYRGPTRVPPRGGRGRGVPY
Compound,IC50 [1] [nM],IC50 [2] [nM],IC50 [3] [nM],DC50 [4] [nM]
"OC[C@@H]1CCCCN1c1nc(NCc2nc3c(F)c(F)ccc3[nH]2)n2ncc(C3CC3)c2n1 [Example 184, [(2S)-1-(8-cyclopropyl-4-{[(4,5-difluoro-1H-benzimidazol-2-yl)methyl]amino}pyrazolo[1,5-a][1,3,5]triazin-2-yl)piperidin-2-yl]methanol]",3.89,10.3,9.27,0.929
"C[C@H]1CN(c2nc(NCc3nc4ccccc4[nH]3)n3ncc(Br)c3n2)CCN1 [Example 169, N-[(1H-benzimidazol-2-yl)methyl]-8-bromo-2-[(3S)-3-methylpiperazin-1-yl]pyrazolo[1,5-a][1,3,5]triazin-4-amine]",3.32,20.7,3.56,1.95
"Fc1cccc2[nH]c(CNc3nc(N4C[C@@H]5CCCN[C@@H]5C4)nc4c(C5CC5)cnn34)nc12 [Example 187, 8-cyclopropyl-N-[(4-fluoro-1H-benzimidazol-2-yl)methyl]-2-[(4aS,7aS)-octahydro-6H-pyrrolo[3,4-b]pyridin-6-yl]pyrazolo[1,5-a][1,3,5]triazin-4-amine]",9.17,13.8,1.1,0.369
"CN(CC(C)(C)O)c1nc(NCc2nc3ccccc3[nH]2)n2ncc(Br)c2n1 [Example 238, 1-[(4-{[(1H-benzimidazol-2-yl)methyl]amino}-8-bromopyrazolo[1,5-a][1,3,5]triazin-2-yl)(methyl)amino]-2-methylpropan-2-ol]",> 12.4,40.1,36.3,4.19
"CN1CC2CCC1CN2c1nc(NCc2nc3ccccc3[nH]2)n2ncc(Br)c2n1 (centres unmarked) [Example 221, N-(1H-benzimidazol-2-ylmethyl)-8-bromo-2-(5-methyl-2,5-diazabicyclo[2.2.2]octan-2-yl)pyrazolo[1,5-a][1,3,5]triazin-4-amine]",11.8,31.7,13,0.41
"Cc1ccc2[nH]c(CNc3nc(N4C[C@@H](C)N[C@@H](C)C4)nc4c(Br)cnn34)nc2c1 [Example 209, 8-bromo-2-[(3R,5S)-3,5-dimethylpiperazin-1-yl]-N-[(5-methyl-1H-benzimidazol-2-yl)methyl]pyrazolo[1,5-a][1,3,5]triazin-4-amine]",1.67,2.26,1.28,0.0619
"COc1ccc2[nH]c(CNc3nc(N4C[C@@H](C)N[C@@H](C)C4)nc4c(Br)cnn34)nc2c1 [Example 205, 8-bromo-2-[(3R,5S)-3,5-dimethylpiperazin-1-yl]-N-[(5-methoxy-1 H-benzimidazol-2-yl)methyl]pyrazolo[1,5-a][1,3,5]triazin-4-amine]",1.81,4.2,1.73,0.279
"Fc1ccc2[nH]c(CNc3nc(N4CCOCC4)nc4c(C5CC5)cnn34)nc2c1F [Example 172, 8-cyclopropyl-N-[(4,5-difluoro-1H-benzimidazol-2-yl)methyl]-2-(morpholin-4-yl)pyrazolo[1,5-a][1,3,5]triazin-4-amine]",0.626,5.35,2.43,0.894
"OC[C@@H]1CCCCN1c1nc(NCc2nc3c(F)cccc3[nH]2)n2ncc(C3CC3)c2n1 [Example 189, [(2S)-1-(8-cyclopropyl-4-{[(4-fluoro-1H-benzimidazol-2-yl)methyl]amino}pyrazolo[1,5-a][1,3,5]triazin-2-yl)piperidin-2-yl]methanol]",1.98,10.7,4.67,0.318
"Clc1cnn2c(NCc3nc4ccccc4[nH]3)nc(N3CCOCC3)nc12 [Example 15, N-[(1H-benzimidazol-2-yl)methyl]-8-chloro-2-(morpholin-4-yl)pyrazolo[1,5-a][1,3,5]triazin-4-amine]",10,44.6,29.5,4.51
"CCNc1nc(NCc2nc3ccccc3[nH]2)n2ncc(Br)c2n1 [Example 227, N4-(1H-benzimidazol-2-ylmethyl)-8-bromo-N2-ethyl-pyrazolo[1,5-a][1,3,5]triazine-2,4-diamine]",15.3,57.9,44.2,2.7
"CN1C[C@@H]2C[C@H]1CN2c1nc(NCc2nc3ccccc3[nH]2)n2ncc(Br)c2n1 [Example 219, N-[(1H-benzimidazol-2-yl)methyl]-8-bromo-2-[(1S,4S)-5-methyl-2,5-diazabicyclo[2.2.1]heptan-2-yl]pyrazolo[1,5-a][1,3,5]triazin-4-amine]",11.6,50.3,27.2,1.23
"Fc1cccc2[nH]c(CNc3nc(N4CCOCC4)nc4c(C5CC5)cnn34)nc12 [Example 188, 8-cyclopropyl-N-[(4-fluoro-1H-benzimidazol-2-yl)methyl]-2-(morpholin-4-yl)pyrazolo[1,5-a][1,3,5]triazin-4-amine]",3.06,16.1,17.6,0.815
"Fc1ccc2[nH]c(CNc3nc(N4CCNCC4)nc4c(C5CC5)cnn34)nc2c1 [Example 190, 8-cyclopropyl-N-[(5-fluoro-1H-benzimidazol-2-yl)methyl]-2-(piperazin-1-yl)pyrazolo[1,5-a][1,3,5]triazin-4-amine]",3.27,4.01,6.68,0.268
"Fc1ccc2[nH]c(CNc3nc(N4CCOCC4)nc4c(C5CC5)cnn34)nc2c1 [Example 181, 8-cyclopropyl-N-[(5-fluoro-1H-benzimidazol-2-yl)methyl]-2-(morpholin-4-yl)pyrazolo[1,5-a][1,3,5]triazin-4-amine]",3.51,9.29,6.1,0.503
"O[C@H]1C[C@@H](Nc2nc(NCc3nc4ccccc4[nH]3)n3ncc(Br)c3n2)C1 [Example 234, cis-3-[(4-{[(1H-benzimidazol-2-yl)methyl]amino}-8-bromopyrazolo[1,5-a][1,3,5]triazin-2-yl)amino]cyclobutan-1-ol]",5.76,59.9,31.3,1.74
"Cc1ccc2[nH]c(CNc3nc(N4CCNCC4)nc4c(Br)cnn34)nc2c1 [Example 204, 8-bromo-N-[(5-methyl-1H-benzimidazol-2-yl)methyl]-2-(piperazin-1-yl)pyrazolo[1,5-a][1,3,5]triazin-4-amine]",1.13,1.59,0.869,0.0967
"Brc1cnn2c(NCc3nc4ccccc4[nH]3)nc(N3CCNC4(CC4)C3)nc12 [Example 176, N-[(1H-benzimidazol-2-yl)methyl]-8-bromo-2-(4,7-diazaspiro[2.5]octan-7-yl)pyrazolo[1,5-a][1,3,5]triazin-4-amine]",4.68,14.6,4.37,0.208
"CC(C)(O)CNc1nc(NCc2nc3ccccc3[nH]2)n2ncc(Br)c2n1 [Example 229, 1-[(4-{[(1H-benzimidazol-2-yl)methyl]amino}-8-bromopyrazolo[1,5-a][1,3,5]triazin-2-yl)amino]-2-methylpropan-2-ol]",10.8,42.8,39.4,0.39
"Brc1cnn2c(NCc3nc4ccccc4[nH]3)nc(N3CCC4(CCCN4)C3)nc12 (centres unmarked) [Example 215, N-(1H-benzimidazol-2-ylmethyl)-8-bromo-2-(1,7-diazaspiro[4.4]nonan-7-yl)pyrazolo[1,5-a][1,3,5]triazin-4-amine]",131,129,34.3,6.49
"CN1CC[C@@H]2CN(c3nc(NCc4nc5ccccc5[nH]4)n4ncc(Br)c4n3)C[C@@H]21 [Example 217, N-[(1H-benzimidazol-2-yl)methyl]-8-bromo-2-[(3aR,6aR)-1-methylhexahydropyrrolo[3,4-b]pyrrol-5 (1H)-yl]pyrazolo[1,5-a][1,3,5]triazin-4-amine]",33.5,97.9,44.9,4.56
"COC(C)(C)CNc1nc(NCc2nc3ccccc3[nH]2)n2ncc(Br)c2n1 [Example 236, N4-(1H-benzimidazol-2-ylmethyl)-8-bromo-N2-(2-methoxy-2-methyl-propyl)pyrazolo[1,5-a][1,3,5]triazine-2,4-diamine]",20.4,90.5,97.4,1.72
"Brc1cnn2c(NCc3nc4ccccc4[nH]3)nc(N3C[C@H]4CCCN[C@H]4C3)nc12 [Example 199, N-[(1H-benzimidazol-2-yl)methyl]-8-bromo-2-[(4aR, 7aR)-octahydro-6H-pyrrolo[3,4-b]pyridin-6-yl]pyrazolo[1,5-a][1,3,5]triazin-4-amine]",47.9,53.2,15.4,2.32
